Results published in US5994361A, “Substituted purinyl derivatives with immunomodulating activity” (priority 1995, dated 1999).
“Also recorded” adds a separate entry of the source.

What was measured:
[1] = system: B cell activity (LPS), spleen mononuclear leukocytes; assay: Mitogenic proliferation on spleen cell suspension, B (LPS); type: cell-based, C57BL-6 mice; details: Mus musculus, Leukocyte, 72 h; at 10^-6 (M)
From the text: Mitogenic lectin (mitogen) is a protein which binds and cross-links specific cells surface carbohydrate determinants, and will polyclonally stimulate lymphoid cells. Lymphocyte activation by either antigens or mitogens results in intracellular changes and the subsequent development into a lymphoblast. Mitogenic stimulation of lymphocytes in vitro is believed to mimic the series of events which occur in vivo following their stimulation by specific antigens. PHA, ConA, and PWM, LPS mitogens can be used as a measurement of T cell and B cell activity, respectively.
Briefly, spleen mononuclear leukocytes from C57BL-6 mice were incubated in the presence or absence of mitogens with or without tested drugs. After 72 hours or 5 days, ^3 H thymidine incorporation was recorded as an indication of cell transformation and proliferation.
100 μl of a suspension of 2×10^6 cells/ml (2×10^5 cells/well) were incubated in presence of PHA or ConA or PWM or LPS at the following concentrations:
PHA=0.01% final concentration-0.001%
Cells were incubated in presence or absence of drugs for 72 hours. 0.5 or 1 μCi of tritiated thymidine (^3 H) was added per well the last 18 or 6 hours of incubation respectively. Cells were harvested and counted on a Beta counter.

[2] = system: T cell response (mixed lymphocyte reaction); assay: Mixed lymphocyte reaction (MLR) assay; type: cell-based, C57B1/6 mice and DBA/2 mice; details: at 10^-9 - 10^-5 M
Method: Mixed lymphocyte reaction is an in vitro counterpart of the allograft rejection. Briefly, T cell response was obtained when cells taken from two inbred strains from two outbred individuals of any species were mixed in vitro in culture.
After 4 days incubation, ^3 H thymidine uptake and cytotoxicity assay (CTL) were performed.
3 C57B1/6 mice and 3 DBA/2 mice wre killed and lymphocytes prepared using lympholyte M. The cell concentration was adjusted to 10×10^6 cell/ml for each lysis. DBA/2 cells were irradiated with 3000 Rads. 1 ml of the C57 cells+1 ml of the DBA/2 cells+1 ml of the drug at 3 different concentrations were incubated together for 5 days. Positive control was IL-2 at 15 ng/ml final. After 5 days, the CTL and MLR tests were carried out.
The cells were resuspended and 100 μl of cell suspension were deposited in each of the 96 wells in the plate, 50 μl of Thymidine at 20 μCi/ml was added for 6 hrs. The cells were then collected and counted using a beta counter.

[3] = system: DA-3 mammary carcinoma; assay: Tumor outgrowth of breast carcinoma, with cyclophosphamide (Example 92); type: in vivo, Balb/C mice
Method: Balb/C Mice (n-5/Gr) were used along with DA-3 mammary carcinoma cell line. The mice were treated from -2 to 13 days. Animals were monitored for tumor takes/tumor size and body weights for three weeks from Day 0 until Day 21. D0 was the day of tumor cell inoculation and D21 was the day of experiment termination.
(§1) Parameters of effect were measured by inhibition of tumor outgrowth and growth rate [tumors measured along the longest axis (length) and the perpendicular shortest axis (width) and the tumor volumes (T.V.±S.E.) was calculated by the formula T.V.=length (cm)×(width cm)^2 /2.] assessment of body weight loss.
The statistical significance of difference between tumor takes and tumor sizes of control-untreated and drug-treated groups is estimated using the Chi-square and Student's t tests respectively with significance determined at n<0.05.
The mice were divided into the following 5 groups:
Gr.1--Normal Saline (0.2 ml/mouse i.p. starting at D2)
Gr.2--CY (100 mg/kg single bolus i.v. at D0)
Gr.3--Compound #1 (25 mg/kg i.p. starting at D2)
Gr.4--Compound #1 (50 mg/kg i.p. starting at D2)
Gr.5--CY (100 mg/kg i.v. at D0+compound #1 50 mg/kg i.p. starting at D2)

[4] = system: DA-3 mammary carcinoma; assay: Compound #1 with Cytoxan 28 mg/kg against DA-3 mammary carcinoma, tumor sizes (Example 94); type: in vivo, Balb/c mice; design: key: tumor volume = length × width²/2
Method: as §1
In another experiment, the CTX treatment was prolonged. Balb/c mice were injected s.c. with 5×10^5 DA-3 tumor cells at day 0. At day 4 when established tumors appeared, tumor-bearing animals were randomized (n=11/gr.) and injected with CTX (at 28 mg/kg) i.v. bolus injections at days 4, 11, and 18. […]

[5] = system: Fisher male and female rats; assay: In vivo toxicity, repeated intravenous injections (Example 96)
Method: The objective of this study was to find the toxic dose of compound #1 after repeated intravenous injections in Fisher male and female rats.
Groups of 3 male rats, and 3 female rats were injected daily i.v. for 5 consecutive days. A first group received 500 mg/kg, a second group 250 mg/kg, and a third group 125 mg/kg. In addition, one male and one female were injected with 1000 mg/kg. An untreated group (male and female) was included in the experiment. For all doses a constant volume of […] was used. Injections were started on day 0 and continued until day 4 (5 days). […] On day 8, the rats were euthanatized and a macroscopic examination of the internal organs was performed.

[6] = 250 mg/kg and 125 mg/kg i.v., 5 days

CN(C)c1ncnc2c1ncn2CCCCCOC(=O)N[C@H](CCCNC(=N)N)C(=O)O [Compound #1, N,N-Dimethylaminopurinyl Pentoxycarbonyl D-Arginine]
fold induction at 1 µM [1]: 2
MLR [2]: 1.5 - 4 ×
Tumor takes ([3]; #1 25 mg/kg, day 4): 2/5
Tumor takes ([3]; #1 25 mg/kg, day 6): 2/5
Tumor takes ([3]; #1 25 mg/kg, day 8): 3/5
Tumor takes ([3]; #1 25 mg/kg, day 10): 4/5
Tumor takes ([3]; #1 50 mg/kg, day 4): 3/5
Tumor takes ([3]; #1 50 mg/kg, day 6): 3/5
Tumor takes ([3]; #1 50 mg/kg, day 8): 3/5
Tumor takes ([3]; #1 50 mg/kg, day 10): 3/5
Tumor takes ([3]; CY 100 mg/kg + #1 50 mg/kg, day 4): 4/5
Tumor takes ([3]; CY 100 mg/kg + #1 50 mg/kg, day 6): 5/5
Tumor takes ([3]; CY 100 mg/kg + #1 50 mg/kg, day 8): 5/5
Tumor takes ([3]; CY 100 mg/kg + #1 50 mg/kg, day 10): 5/5
tumor size ([4]; BCH-1393 50 mg/kg + CTX 28 mg/kg, day 7): 6.5
tumor size ([4]; BCH-1393 50 mg/kg + CTX 28 mg/kg, day 9): 12.6
tumor size ([4]; BCH-1393 50 mg/kg + CTX 28 mg/kg, day 11): 20.2
tumor size ([4]; BCH-1393 50 mg/kg + CTX 28 mg/kg, day 14): 9.5
tumor size ([4]; BCH-1393 50 mg/kg + CTX 28 mg/kg, day 16): 41.7
tumor size ([4]; BCH-1393 50 mg/kg + CTX 28 mg/kg, day 18): 44.9
tumor size ([4]; BCH-1393 50 mg/kg + CTX 28 mg/kg, day 21): 63.4
tumor size ([4]; BCH-1393 50 mg/kg + CTX 28 mg/kg, day 23): 69.6
tumor size ([4]; BCH-1393 50 mg/kg + CTX 28 mg/kg, day 25): 95.4
tumor size ([4]; BCH-1393 50 mg/kg + CTX 28 mg/kg, day 28): 104.2
tumor size ([4]; BCH-1393 50 mg/kg + CTX 28 mg/kg, day 30): 115.8
tumor size ([4]; BCH-1393 50 mg/kg Ip (Days 3-28) + CTX 28 mg/kg Iv (days 4, 11, 18), day 4): 3.6
tumor size ([4]; single agent (CTX 28 mg/kg days 4, 11, 18, or BCH-1393 50 mg/kg days 3-28), day 4): 2.7
tumor size ([4]; single agent (CTX 28 mg/kg or BCH-1393 50 mg/kg), day 7): 10.2
tumor size ([4]; single agent (CTX 28 mg/kg or BCH-1393 50 mg/kg), day 9): 18.1
tumor size ([4]; single agent (CTX 28 mg/kg or BCH-1393 50 mg/kg), day 11): 29.2
tumor size ([4]; single agent (CTX 28 mg/kg or BCH-1393 50 mg/kg), day 14): 50.1
tumor size ([4]; single agent (CTX 28 mg/kg or BCH-1393 50 mg/kg), day 16): 58.5
tumor size ([4]; single agent (CTX 28 mg/kg or BCH-1393 50 mg/kg), day 18): 66.3
tumor size ([4]; single agent (CTX 28 mg/kg or BCH-1393 50 mg/kg), day 21): 94.2
tumor size ([4]; single agent (CTX 28 mg/kg or BCH-1393 50 mg/kg), day 23): 131.4
tumor size ([4]; single agent (CTX 28 mg/kg or BCH-1393 50 mg/kg), day 25): 130.9
tumor size ([4]; single agent (CTX 28 mg/kg or BCH-1393 50 mg/kg), day 28): 152.5
tumor size ([4]; single agent (CTX 28 mg/kg or BCH-1393 50 mg/kg), day 30): 187.2
abnormal signs [5, 6]: no abnormal signs
growth curves [5, 6]: normal
changes on necropsy ([5]; 250 mg/kg and 125 mg/kg i.v., day 8): No drug induced changes
signs of toxicity ([5]; 250 mg/kg i.v., 5 consecutive days): no signs of toxicity
growth curves ([5]; 500 mg/kg i.v., 5 days): not affected when compared to controls
lethality or effects on growth ([5]; 500 mg/kg i.v., 5 days): no lethality of effects on the growth of the animals
signs of drug effect ([5]; 500 mg/kg i.v., 5 days): twitches of the torso area, tremors of the forepaws and jumping episods; also recorded: some short lasting abnormal signs
duration of signs ([5]; 500 mg/kg i.v., after each of five injections): less than 1 hour
lethality ([5]; 1000 mg/kg i.v.): lethal
signs of drug effect ([5]; 1000 mg/kg i.v.): severe colonic convulsions
time to death ([5]; 1000 mg/kg i.v., 1 male and 1 female, both died): ≤ 10 min
tolerability ([5]; i.v. in Fisher rats): well tolerated
tolerability (conclusion) ([5]; rat, in vivo): appear to be well tolerated
